The text below walks through data of US5420335A, “Parenteral nutrients based on watersoluble glycerol bisacetoacetates” (priority 1993, dated 1995).

For test [1] the following is noted: in words; cited from earlier work.
The nature of test [2]: Overall evaluation as a parenteral nutrient. The format is in vivo, rat (male Sprague-Dawley). The note with it: in words. On the procedure: Water was available ad libitum at all times.
The vein was then ligated dorsally to the catheter. […] Body weights were measured daily.
Infusate volume, oral food intake, body weight and urinary volume and total nitrogen were monitored daily for each rat. Infusate volume and food intake were determined by weighing the appropriate container at the start and end of each 24 hr. period. Measurements were recorded between 9 and 10 AM each day. At the end of the 7th day, rats were sacrificed, and blood and liver were harvested. Plasma was separated for measurement of free fatty acids, glucose, and ketone bodies. Liver was weighed and a sample was fixed in buffered formalin for gross histology.
The data were analyzed for significance by the one-way analysis of variance with repeated measures and comparing the effect of dietary treatment on each day. […] The null hypothesis was concluded invalid if p≤0.05. The analysis of variance was computed on a SAS statistical package.

As to `CC(=O)OCC1COC(C)(C)O1` (stereo not shown) [2,3-isopropylidene-1-acetate], in test [1], the “enhance the absorption of certain agents in the intestine” value (“enhance the absorption” for short) is listed as “enhance the absorption of certain agents in the intestine”. In the case of “Partially Reduced Pentaacetoacetyl-glucose [Compound 3]”, the “efficacy as parenteral nutrient / energy source” value in test [2] is given as “ineffective as parenteral nutrients”.

Regarding `CC(=O)CC(=O)OCC1COC(C)(C)O1` (stereo not shown) [1,2-isopropylideneglyceryl 3-acetoacetate], the “enhance the absorption” value in test [1] is “enhance the absorption of certain agents in the intestine”. With `CC(=O)CC(=O)OCC(O)COC(=O)CC(C)=O` [1,3-bisacetoacetylglycerol], the “enhance the absorption” value in test [1] is recorded as “enhance the absorption of certain agents in the intestine”.
